In brackets after ≈: the same amount, converted by molar mass.
Experiments:
HepG2 = assay: Antiproliferative activity against human HepG2 cells assessed as reduction in cell viability by MTT assay; assay type: functional, cell-based
Bacillus thuringiensis = assay: Antibacterial activity against Bacillus thuringiensis BT01 by CLSI based two-fold serial dilution method; assay type: functional
[1] = Cytotoxicity against HUVEC12 assessed as reduction in cell viability by MTT assay; conditions: Homo sapiens
Enterococcus faecalis = assay: Antimicrobial activity against Enterococcus faecalis ATCC 29212 by CLSI based two-fold serial dilution method; assay type: functional
Staphylococcus aureus [2] = assay: Antibacterial activity against methicillin-resistant Staphylococcus aureus shhs-A1 by CLSI based two-fold serial dilution method; assay type: functional
Staphylococcus aureus [3] = assay: Antibacterial activity against Staphylococcus aureus ATCC […] by CLSI based two-fold serial dilution method; assay type: functional; conditions: ATCC 29213
A549 = assay: Antiproliferative activity against human A549 cells assessed as reduction in cell viability by MTT assay; assay type: functional, cell-based
L02 = assay: Cytotoxicity against human L02 cells assessed as reduction in cell viability by MTT assay; assay type: cell-based
RKO = assay: Antiproliferative activity against human RKO cells assessed as reduction in cell viability by MTT assay; assay type: functional, cell-based
Staphylococcus aureus [4] = assay: Antibacterial activity against Staphylococcus aureus 745524 by CLSI based two-fold serial dilution method; assay type: functional
MGC-803 = assay: Antiproliferative activity against human MGC803 cells assessed as reduction in cell viability by MTT assay; assay type: functional, cell-based
HeLa = assay: Antiproliferative activity against human HeLa cells assessed as reduction in cell viability by MTT assay; assay type: functional, cell-based
MCF7 = assay: Antiproliferative activity against human MCF7 cells assessed as reduction in cell viability by MTT assay; assay type: functional, cell-based
Bacillus subtilis = assay: Antibacterial activity against Bacillus subtilis BS01 by CLSI based two-fold serial dilution method; assay type: functional

Compound: CSC1=C2C3=CC(=O)C(O)=C2[C@@H]2O[C@H](CC[C@H](C)/C=C(\C)C[C@@H](C)C[C@H](C)[C@]1(O)O3)[C@H](C)[C@H](O)[C@H]2C
- IC50 (HepG2): 6.7 µM
- MIC (Bacillus thuringiensis): 0.5 µg/mL (≈ 0.964 µM)
- IC50 [1]: 6 µM
- MIC (Enterococcus faecalis): 0.5 µg/mL (≈ 0.964 µM)
- MIC (Staphylococcus aureus [2]): 1 µg/mL (≈ 1.93 µM)
- MIC (Staphylococcus aureus [3]): 0.5 µg/mL (≈ 0.964 µM)
- IC50 (A549): 6.8 µM
- IC50 (L02): 2.2 µM
- IC50 (RKO): 3.8 µM
- MIC (Staphylococcus aureus [4]): 1 µg/mL (≈ 1.93 µM)
- IC50 (MGC-803): 8.9 µM
- IC50 (HeLa): 5.4 µM
- IC50 (MCF7): 2.3 µM
- MIC (Bacillus subtilis): 2 µg/mL (≈ 3.86 µM)

Compound: C/C1=C\[C@@H](C)CC[C@H]2O[C@@H](C3=C(O)C(=O)C=C4O[C@](O)(C=C43)[C@@H](C)C[C@H](C)C1)[C@H](C)[C@@H](O)[C@H]2C
- IC50 (HepG2): 22 µM
- MIC (Bacillus thuringiensis): 1 µg/mL (≈ 2.12 µM)
- IC50 [1]: 6 µM
- MIC (Enterococcus faecalis): 2 µg/mL (≈ 4.23 µM)
- MIC (Staphylococcus aureus [2]): 2 µg/mL (≈ 4.23 µM)
- MIC (Staphylococcus aureus [3]): 0.5 µg/mL (≈ 1.06 µM)
- IC50 (A549): 8 µM
- IC50 (L02): 7.4 µM
- IC50 (RKO): 6.1 µM
- MIC (Staphylococcus aureus [4]): 1 µg/mL (≈ 2.12 µM)
- IC50 (MGC-803): 3.3 µM
- IC50 (HeLa): 4.9 µM
- IC50 (MCF7): 5.1 µM
- MIC (Bacillus subtilis): 2 µg/mL (≈ 4.23 µM)

Compound: CC(=O)N[C@@H](CSC1=C2C3=CC(=O)C(O)=C2[C@@H]2O[C@H](CC[C@H](C)/C=C(\C)C[C@@H](C)C[C@H](C)[C@]1(O)O3)[C@H](C)[C@H](O)[C@H]2C)C(=O)O
- IC50 (HepG2): 44 µM
- MIC (Bacillus thuringiensis): 2 µg/mL (≈ 3.16 µM)
- IC50 [1]: > 50 µM
- MIC (Enterococcus faecalis): 4 µg/mL (≈ 6.31 µM)
- MIC (Staphylococcus aureus [2]): 4 µg/mL (≈ 6.31 µM)
- MIC (Staphylococcus aureus [3]): 1 µg/mL (≈ 1.58 µM)
- IC50 (A549): 26 µM
- IC50 (L02): 6.2 µM
- IC50 (RKO): 34 µM
- MIC (Staphylococcus aureus [4]): 2 µg/mL (≈ 3.16 µM)
- IC50 (MGC-803): 7.1 µM
- IC50 (HeLa): 7.1 µM
- IC50 (MCF7): 13 µM
- MIC (Bacillus subtilis): 8 µg/mL (≈ 12.6 µM)

Compound: CC1(C)S[C@@H]2[C@H](NC(=O)[C@H](N)c3ccccc3)C(=O)N2[C@H]1C(=O)O [AMPICILLIN]
- MIC (Bacillus thuringiensis): 32 µg/mL (≈ 91.6 µM)
- MIC (Enterococcus faecalis): 2 µg/mL (≈ 5.72 µM)
- MIC (Staphylococcus aureus [2]): 1 µg/mL (≈ 2.86 µM)
- MIC (Staphylococcus aureus [3]): 2 µg/mL (≈ 5.72 µM)
- MIC (Bacillus subtilis): 0.25 µg/mL (≈ 0.715 µM)

Compound: COc1cccc2c1C(=O)c1c(O)c3c(c(O)c1C2=O)C[C@@](O)(C(=O)CO)C[C@@H]3O[C@H]1C[C@H](N)[C@H](O)[C@H](C)O1 [DOXORUBICIN]
- IC50 (HepG2): 0.7 µM
- IC50 [1]: 7.2 µM
- IC50 (L02): 8.6 µM
- IC50 (RKO): 1.5 µM
- IC50 (MGC-803): 3.6 µM
- IC50 (HeLa): 0.8 µM
- IC50 (MCF7): 0.8 µM

Compound: NC[C@H]1O[C@H](O[C@H]2[C@H](O)[C@@H](O[C@H]3O[C@H](CO)[C@@H](O)[C@H](N)[C@H]3O)[C@H](N)C[C@@H]2N)[C@H](O)[C@@H](O)[C@@H]1O [KANAMYCIN]
- MIC (Bacillus thuringiensis): 8 µg/mL (≈ 16.5 µM)
- MIC (Enterococcus faecalis): 32 µg/mL (≈ 66 µM)
- MIC (Staphylococcus aureus [2]): 64 µg/mL (≈ 132 µM)
- MIC (Staphylococcus aureus [3]): 16 µg/mL (≈ 33 µM)
- MIC (Staphylococcus aureus [4]): 64 µg/mL (≈ 132 µM)
- MIC (Bacillus subtilis): 8 µg/mL (≈ 16.5 µM)

Compound: CN[C@H](CC(C)C)C(=O)N[C@H]1C(=O)N[C@@H](CC(N)=O)C(=O)N[C@H]2C(=O)N[C@H]3C(=O)N[C@H](C(=O)N[C@H](C(=O)O)c4cc(O)cc(O)c4-c4cc3ccc4O)[C@H](O)c3ccc(c(Cl)c3)Oc3cc2cc(c3O[C@@H]2O[C@H](CO)[C@@H](O)[C@H](O)[C@H]2O[C@H]2C[C@](C)(N)[C@H](O)[C@H](C)O2)Oc2ccc(cc2Cl)[C@H]1O [VANCOMYCIN]
- MIC (Bacillus thuringiensis): 2 µg/mL (≈ 1.38 µM)
- MIC (Bacillus subtilis): 1 µg/mL (≈ 0.69 µM)
